# Experimental data taken from BindingDB's records for doi:10.1016/0960-894X(96)00438-6 (1996).
# Experiment: In vitro inhibition of thrombin-induced human gel-filtered platelet aggregation.
row,SMILES,IC50 [nM]
1,O=C(NCCc1nnn[nH]1)C1CCCN(C(=O)CCC2CCNCC2)C1 (stereo not given) [1-(3-Piperidin-4-yl-propionyl)-piperidine-3-carboxylic acid [2-(1H-tetrazol-5-yl)-ethyl]-amide],40000
2,O=C(O)C(O)CNC(=O)[C@@H]1CCCN(C(=O)CCC2CCNCC2)C1 (stereo partly drawn) [2-Hydroxy-3-{[(R)-1-(3-piperidin-4-yl-propionyl)-piperidine-3-carbonyl]-amino}-propionic acid],800
3,CC(CNC(=O)C1CCCN(C(=O)CCC2CCNCC2)C1)C(=O)O (stereo not given) [2-Methyl-3-{[1-(3-piperidin-4-yl-propionyl)-piperidine-3-carbonyl]-amino}-propionic acid],> 10000
4,COC(=O)C(CC(=O)O)NC(=O)C1CCCN(C(=O)CCC2CCNCC2)C1 (stereo not given) [2-{[1-(3-Piperidin-4-yl-propionyl)-piperidine-3-carbonyl]-amino}-succinic acid 1-methyl ester],1000
5,O=C(O)CCNC(=O)C1CCCN(C(=O)OCC2CCNCC2)C1 (stereo not given) [3-(2-Carboxy-ethylcarbamoyl)-piperidine-1-carboxylic acid piperidin-4-ylmethyl ester],5000
6,CN(CCC(=O)O)C(=O)C1CCCN(C(=O)CCC2CCNCC2)C1 (stereo not given) [3-{Methyl-[1-(3-piperidin-4-yl-propionyl)-piperidine-3-carbonyl]-amino}-propionic acid],28000
7,O=C(O)C1CCCC(NC(=O)C2CCCN(C(=O)CCC3CCNCC3)C2)C1 (stereo not given) [3-{[1-(3-Piperidin-4-yl-propionyl)-piperidine-3-carbonyl]-amino}-cyclohexanecarboxylic acid],> 50000
8,"O=C(O)C[C@H](NC(=O)[C@@H]1CCCN(C(=O)CCC2CCNCC2)C1)c1ccc2c(c1)OCO2 [(S)-3-Benzo[1,3]dioxol-5-yl-3-{[(R)-1-(3-piperidin-4-yl-propionyl)-piperidine-3-carbonyl]-amino}-propionic acid]",20
9,O=C(O)C[C@H](NC(=O)[C@@H]1CCCN(C(=O)CCC2CCNCC2)C1)c1cccs1 [(S)-3-{[(R)-1-(3-Piperidin-4-yl-propionyl)-piperidine-3-carbonyl]-amino}-3-thiophen-2-yl-propionic acid],90
10,O=C(O)C[C@@H](C#Cc1ccccc1)NC(=O)[C@@H]1CCCN(C(=O)CCC2CCNCC2)C1 [(S)-5-Phenyl-3-{[(R)-1-(3-piperidin-4-yl-propionyl)-piperidine-3-carbonyl]-amino}-pent-4-ynoic acid],80
